Test results taken from patent publication US9815851B2, “Pyrrolo carboxamides as modulators of orphan nuclear receptor RAR-related orphan receptor-gamma (RORγ, NR1F3) activity and for the treatment of chronic inflammatory and autoimmune diseases” (PHENEX PHARMACEUTICALS AG, priority 2011, dated 2017).
Where two headings read alike, the source gives them in different places.

Tests used:
[1] = target: T1, RORγ ligand binding domain (LBD) (Homo sapiens, UniProt P51449); test: TR-FRET Activity Assay (ligand sensing, RORγ-LBD / coactivator peptide interaction, LANCE); type: biochemical
T1 construct: made in house; host or cells: E. coli BL-21 (BL3), vector pDEST15
T1 sequence (P51449 269-508 limits assumed): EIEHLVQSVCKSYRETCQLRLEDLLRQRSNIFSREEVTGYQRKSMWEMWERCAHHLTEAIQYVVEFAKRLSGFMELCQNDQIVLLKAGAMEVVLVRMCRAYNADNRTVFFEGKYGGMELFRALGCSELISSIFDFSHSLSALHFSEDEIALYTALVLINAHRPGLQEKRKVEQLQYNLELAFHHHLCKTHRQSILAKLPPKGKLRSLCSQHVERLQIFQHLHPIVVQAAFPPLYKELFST

RORγ = target: T2, RORγ (UniProt P51449); test: RORγ Gal4 Reporter Gene Assay in 293T cells (firefly and renilla luciferase); type: cell-based, human
T2 sequence (P51449 1-518): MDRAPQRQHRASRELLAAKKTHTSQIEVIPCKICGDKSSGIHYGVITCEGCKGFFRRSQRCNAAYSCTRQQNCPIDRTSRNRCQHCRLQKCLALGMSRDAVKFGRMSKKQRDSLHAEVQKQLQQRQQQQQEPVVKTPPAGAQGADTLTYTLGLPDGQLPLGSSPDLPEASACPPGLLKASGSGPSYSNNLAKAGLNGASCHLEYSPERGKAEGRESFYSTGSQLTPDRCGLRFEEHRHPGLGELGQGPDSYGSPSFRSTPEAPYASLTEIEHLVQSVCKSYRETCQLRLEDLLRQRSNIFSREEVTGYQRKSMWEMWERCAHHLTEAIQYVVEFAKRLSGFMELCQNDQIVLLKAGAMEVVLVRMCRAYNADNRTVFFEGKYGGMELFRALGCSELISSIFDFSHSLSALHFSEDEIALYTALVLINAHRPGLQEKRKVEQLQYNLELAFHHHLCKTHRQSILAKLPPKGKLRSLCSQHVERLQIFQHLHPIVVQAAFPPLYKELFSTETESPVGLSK

[2] = first value of the cell FRET/FF/REN, TR-FRET activity assay, read-out: pIC50 (FRET) (converted)
[3] = second value of the cell, Gal4 reporter gene assay in 293T cells, firefly luciferase
[4] = third value of the cell, Gal4 reporter gene assay in 293T cells, renilla normalised luciferase

IC50 [1, 2]	pIC50 (FF) (RORγ; [3])	pIC50 (REN) (RORγ; [4])	SMILES	IC50 [1]	pIC50 (FF) (RORγ)	pIC50 (REN) (RORγ)
1000 nM	7.1	7.1	Cc1c(C(=O)NC2CCOCC2)cc(-c2cc(C(C)(C)O)cc(C3(C)CC3)c2)n1CC1CCCCC1 [1/43]			
			COC(C)(C)c1cc(-c2cc(C(=O)NC3CCOCC3)c(C)n2CC2CCCCC2)cc(C2(C)CC2)c1 [1/44]	501 nM	6.3/7.4/7.3	6.3/7.4/7.3
1000 nM	5.6	5.8	Cc1c(C(N)=O)cc(-c2ccc(C(O)(C(F)(F)F)C(F)(F)F)cc2)n1CC1CCCCC1 [1/45]			
			COCCNC(=O)c1cc(-c2cc(C(C)(C)C)c(O)c(C(C)(C)C)c2)n(CC2CCCCC2)c1C [1/46]	316 nM	6.5/6.5/6.5	6.5/6.5/6.5
3980 nM	< 4.7	< 4.7	Cc1c(C(N)=O)cc(-c2cccc(C(O)(C(F)(F)F)C(F)(F)F)c2)n1CC1CCCCC1 [1/47]			
631 nM	6.4	6.4	Cc1c(C(=O)NCC(F)(F)F)cc(-c2cc(C(C)(C)C)c(O)c(C(C)(C)C)c2)n1CC1CCCCC1 [1/48]			
31600 nM	6.2	6.6	Cc1noc2ccc(-c3cc(C(N)=O)c(C)n3CC3CCCCC3)cc12 [1/49]			
2510 nM	5.9	6.1	Cc1c(C(=O)NS(C)(=O)=O)cc(-c2cc(C(C)(C)C)cc(C(C)(C)C)c2)n1CC1CCCCC1 [1/51]			
			Cc1c(C(=O)NC2COC2)cc(-c2cc(C(C)(C)C)cc(C(C)(C)C)c2)n1CC1CCCCC1 [1/53]	158 nM	6.8/7.3/7.4	6.8/7.3/7.4
			Cc1c(C(=O)NCCO)cc(-c2cc(C(C)(C)C)cc(C(C)(C)C)c2)n1CC1CCCCC1 [1/54]	398 nM	6.4/6.3/6.4	6.4/6.3/6.4
			Cc1c(C(=O)NCCN(C)C)cc(-c2cc(C(C)(C)C)cc(C(C)(C)C)c2)n1CC1CCCCC1 [1/56]	3160 nM	5.5/<4.7/<4.7	5.5/<4.7/<4.7
			Cc1c(C(=O)NC2(CO)CC2)cc(-c2cc(C(C)(C)C)cc(C(C)(C)C)c2)n1CC1CCCCC1 [1/58]	631 nM	6.2/6.2/6.2	6.2/6.2/6.2
631 nM	6.3	6.3	Cc1c(C(=O)NC[C@@H](C)O)cc(-c2cc(C(C)(C)C)cc(C(C)(C)C)c2)n1CC1CCCCC1 [1/59]			
1000 nM	6.2	6.2	Cc1c(C(=O)NC[C@H](C)O)cc(-c2cc(C(C)(C)C)cc(C(C)(C)C)c2)n1CC1CCCCC1 [1/60]			
			Cc1c(C(=O)NCCOC(C)C)cc(-c2cc(C(C)(C)C)cc(C(C)(C)C)c2)n1CC1CCCCC1 [1/62]	316 nM	6.5/6.4/6.3	6.5/6.4/6.3
			Cc1c(C(=O)NCCOCCO)cc(-c2cc(C(C)(C)C)cc(C(C)(C)C)c2)n1CC1CCCCC1 [1/63]	631 nM	6.2/6.7/6.7	6.2/6.7/6.7
398 nM	6.6	6.6	Cc1c(C(=O)NCCCO)cc(-c2cc(C(C)(C)C)cc(C(C)(C)C)c2)n1CC1CCCCC1 [1/65]			

IC50 [1, 2]	pIC50 (FF) (RORγ; [3])	pIC50 (REN) (RORγ; [4])	SMILES	IC50 [1]	pIC50 (FF) (RORγ)	pIC50 (REN) (RORγ)
398 nM	6.7	6.8	Cc1c(C(=O)NCCCCO)cc(-c2cc(C(C)(C)C)cc(C(C)(C)C)c2)n1CC1CCCCC1 [1/66]			
1580 nM	6.7	6.8	Cc1c(C(=O)NCCC(=O)O)cc(-c2cc(C(C)(C)C)cc(C(C)(C)C)c2)n1CC1CCCCC1 [1/68]			
1580 nM	6.8	6.9	Cc1c(C(=O)NCCCC(=O)O)cc(-c2cc(C(C)(C)C)cc(C(C)(C)C)c2)n1CC1CCCCC1 [1/69]			
			Cc1c(C(=O)NCCN2CCOCC2)cc(-c2cc(C(C)(C)C)cc(C(C)(C)C)c2)n1CC1CCCCC1 [1/70]	631 nM	6.2/6.6/6.6	6.2/6.6/6.6
1000 nM	7.1	7.1	Cc1c(C(=O)NCCCCCC(=O)O)cc(-c2cc(C(C)(C)C)cc(C(C)(C)C)c2)n1CC1CCCCC1 [1/72]			
1260 nM	7.2	7.2	Cc1c(C(=O)NCCCCC(=O)O)cc(-c2cc(C(C)(C)C)cc(C(C)(C)C)c2)n1CC1CCCCC1 [1/73]			
			Cc1c(C(=O)NCCCCN2CCOCC2)cc(-c2cc(C(C)(C)C)cc(C(C)(C)C)c2)n1CC1CCCCC1 [1/74]	5010 nM	5.3/<4.7/<4.7	5.3/<4.7/<4.7
			Cc1c(C(=O)NCCCCCN2CCOCC2)cc(-c2cc(C(C)(C)C)cc(C(C)(C)C)c2)n1CC1CCCCC1 [1/75]	4900 nM	5.31/<4.7<4.7	5.31/<4.7<4.7
			Cc1c(C(=O)NC2COC2)cc(-c2cc(C(C)(C)C)cc(C(F)(F)F)c2)n1CC1CCCCC1 [1/78]	316 nM	6.5/7.1/7.1	6.5/7.1/7.1
200 nM	7.5	7.5	Cc1c(C(=O)NC2COC2)cc(-c2cc(C3(C)CC3)cc(C3(C)CC3)c2)n1CC1CCCCC1 [1/80]			
200 nM	7.4	7.4	Cc1c(C(=O)NC2COC2)cc(-c2cc(C(C)(C)C)cc(C3(C)CC3)c2)n1CC1CCCCC1 [1/81]			
			Cc1c(C(=O)NCCCCCO)cc(-c2cc(C(C)(C)C)cc(C3(C)CC3)c2)n1CC1CCCCC1 [1/82]	158 nM	6.8/7.4/7.4	6.8/7.4/7.4
			Cc1c(C(=O)NC2CCOCC2)cc(-c2cc(C(C)(C)C)cc(C3(C)CC3)c2)n1CC1CCCCC1 [1/84]	158 nM	6.8/7.6/7.6	6.8/7.6/7.6
			Cc1c(C(=O)NCC(C)(C)O)cc(-c2cc(C(C)(C)C)cc(C3(C)CC3)c2)n1CC1CCCCC1 [1/87]	316 nM	6.5/7.2/7.2	6.5/7.2/7.2
			Cc1c(C(=O)NCCN2CCOCC2)cc(-c2cc(C(C)(C)C)cc(C3(C)CC3)c2)n1CC1CCCCC1 [1/88]	398 nM	6.4/6.5/6.5	6.4/6.5/6.5
2000 nM	7.0	6.9	Cc1c(C(=O)NCCC(=O)O)cc(-c2cc(C(C)(C)C)c3c(c2)C2(CCO3)CC2)n1CC1CCCCC1 [1/90]			

SMILES	IC50 [1, 2]	pIC50 (FF) (RORγ; [3])	pIC50 (REN) (RORγ; [4])	IC50 [1]	pIC50 (FF) (RORγ)	pIC50 (REN) (RORγ)
CCc1cc(-c2cc(C(N)=O)c(C)n2CC2CCCCC2)cc2c1OCC2(C)C [1/50]	1580 nM	6.0	6.1			
Cc1c(C(=O)N2CCOCC2)cc(-c2cc(C(C)(C)C)cc(C(C)(C)C)c2)n1CC1CCCCC1 [1/52]	158 nM	6.4	6.5			
Cc1c(C(=O)NCC(=O)O)cc(-c2cc(C(C)(C)C)cc(C(C)(C)C)c2)n1CC1CCCCC1 [1/57]	2510 nM	5.8	5.8			
COCCNC(=O)c1cc(-c2cc(C(C)(C)C)cc(C(C)(C)C)c2)n(CC2CCCCC2)c1C [1/64]	316 nM	6.5/6.5/6.5	6.5/6.5/6.5			
Cc1c(C(=O)NCCCCCO)cc(-c2cc(C(C)(C)C)cc(C(C)(C)C)c2)n1CC1CCCCC1 [1/67]	158 nM	7.2	7.3			
Cc1c(C(=O)NCCCN2CCOCC2)cc(-c2cc(C(C)(C)C)cc(C(C)(C)C)c2)n1CC1CCCCC1 [1/71]	1260 nM	5.8	5.9			
Cc1c(C(=O)NC2COC2)cc(-c2cc(C(C)(C)C)c(F)c(C(C)(C)C)c2)n1CC1CCCCC1 [1/77]	200 nM	6.9	7.0			
Cc1c(C(=O)NC2COC2)cc(-c2cc(C(F)(F)F)cc(C3(C)CC3)c2)n1CC1CCCCC1 [1/79]	398 nM	7.2	7.2			
Cc1c(C(=O)NC2CC2)cc(-c2cc(C(C)(C)C)cc(C3(C)CC3)c2)n1CC1CCCCC1 [1/83]	316 nM	6.9	7.0			
Cc1c(C(=O)NCC(C)(C)C(N)=O)cc(-c2cc(C(C)(C)C)cc(C3(C)CC3)c2)n1CC1CCCCC1 [1/85]	316 nM	7.7	7.7			
Cc1c(C(=O)NCC2(C)COC2)cc(-c2cc(C(C)(C)C)cc(C3(C)CC3)c2)n1CC1CCCCC1 [1/86]	158 nM	7.6	7.6			
Cc1c(C(N)=O)cc(-c2cc(C(C)(C)C)cc(C3(C)CC3)c2)n1CC1CCCCC1 [1/89]	251 nM	6.3	6.2			
